Assay results reported in patent US20230104487A1, “11-(4-CHLOROPHENYL)-4-(2,3-DIHYDRO-1H-INDOLE-1-CARBONYL)-3,11-DIMETHYL-5,10,DIOXATRICYCLO[7.4.0.0,2,6,]TRIDECA-1,3,6,8-TETRAEN-13-ONE AND DERIVATIVES AS DESTABILIZER OF CRY1 FOR THE TREATMENT OF CIRCADIAN RHYTHM ASSOCIATED DISEASES AND DISORDERS” (KOC UNIVERSITESI, priority 2019, published 2023).
Entries after “also recorded” stand apart in the source; their conditions may differ.

Columns and labels:
CRY1 = target: T1, CRY1 (Homo sapiens, UniProt Q16526); test: Protein immunoblot, unsynchronized U2-OS cells, CRY1; type: cell-based; conditions: Western blot
T1 construct: To evaluate the effect of FORMULA I on the endogenous protein and mRNA level of clock genes; endogenous in cells; host or cells: U2-OS
T1 sequence (Q16526 1-586): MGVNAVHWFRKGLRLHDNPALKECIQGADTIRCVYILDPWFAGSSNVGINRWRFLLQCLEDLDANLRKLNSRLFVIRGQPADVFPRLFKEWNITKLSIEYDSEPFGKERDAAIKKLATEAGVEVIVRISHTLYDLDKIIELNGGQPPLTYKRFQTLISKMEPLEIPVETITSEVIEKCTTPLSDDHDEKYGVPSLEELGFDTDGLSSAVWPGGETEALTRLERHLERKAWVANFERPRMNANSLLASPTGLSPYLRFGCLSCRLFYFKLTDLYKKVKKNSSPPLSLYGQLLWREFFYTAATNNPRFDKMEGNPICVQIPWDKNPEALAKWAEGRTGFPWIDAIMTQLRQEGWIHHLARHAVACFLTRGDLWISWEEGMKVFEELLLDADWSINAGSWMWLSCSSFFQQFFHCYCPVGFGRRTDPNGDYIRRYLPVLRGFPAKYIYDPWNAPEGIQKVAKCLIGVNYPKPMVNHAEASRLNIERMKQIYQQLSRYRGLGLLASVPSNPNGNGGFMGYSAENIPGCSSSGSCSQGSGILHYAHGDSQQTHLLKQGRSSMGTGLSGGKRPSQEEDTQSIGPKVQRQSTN
Experimental: Cells were lysed in RIPA buffer (50 mM Tris, 150 mM NaCl, 1% Triton-X, 0.1% SDS) with fresh Protease inhibitor cocktail (PIC). After centrifugation at 13000 rpm for 15 minutes at 4° C., supernatant was used to determine the protein amount using Pierce Protein Assay (Thermo Scientific) according to the manufacturer's instruction. Mice liver samples were homogenized and lysed with Dounce homogenizer and RIPA buffer. After homogenization samples were incubated 10 minutes on ice. After centrifugation 13000 rpm 15 minutes at 4° C. supernatant was used for the whole cell lysate. Subcellular fractionation of liver samples: Liver samples were homogenized with cytosolic lysis buffer (10 mM HEPES pH 7.9, 10 mM KCl, 0.1 mM EDTA, 0.05% NP40, proteasome inhibitor) by pipetting 40 times with a cut tip. Then samples were incubated 10 minutes on ice and centrifuged for 3 minutes at 3000 rpm at 4° C. Supernatant was saved in a new tube, and pellet was processed for the nuclear fraction. Supernatant was centrifuged at 13000 rpm for 3 minutes at 4° C. where new supernatant saved as the cytosolic fraction. […] ECL buffer system (Advansta WesternBright) was used to visualize HRP chemi-luminescence via BioRad ChemiDoc Touch visualizer.

C57BL/6J mice = test: Single dose toxicity study in mice; type: in vivo
Experimental: Male and female C57BL/6J mice, 8-12 weeks of age, weighing 18-24 g were used in the in vivo studies with FORMULA I. Mice were obtained from Kog University Animal Research Facility (KUTTAM) and experiments were conducted in accordance with the guidelines approved for animal experimental procedures by the Koc University Animal Research Local Ethics Committee (No: 2015/13).
Mice were housed in polystyrene cages up to four animals in the room equipped with temperature control (21±2° C.) and humidity (55±5%). Mice were housed under 12 h of light (L) in alternation with 12 h of darkness (D) (LD 12:12) prior to any intervention and the same lighting regimen continued to the end of the experiment. Water and food were provided ad libitum throughout the experiments. FORMULA I or vehicle were administered intraperitoneally to mice at the same time every day (three hours after light onset). […]
The dose levels to be used in the single dose toxicity study were selected according to the OECD Guidelines (Guidelines for the testing of chemicals, 2002). […] Body weight was measured every day as an index of general toxicity. […] The body temperatures of the mice were recorded by rectal homeothermic monitor (Harvard Apparatus, US) for 5 days following FORMULA I injection. […] Food intake and water consumption were also monitored for 14 days. […] Hematological parameters were analyzed in blood samples.

SMILES: Cc1c(C(=O)N2CCc3ccccc32)oc2ccc3c(c12)C(=O)CC(C)(c1ccc(Cl)cc1)O3 (stereo not drawn) [FORMULA I, 11-(4-chlorophenyl)-4-(2,3-dihydro-1H-indole-1-carbonyl)-3,11-dimethyl-5,10,dioxatricyclo[7.4.0.0,2,6,]trideca-1,3,6,8-tetraen-13-one]
- steady-state level of CRY1 (CRY1): level of CRY1 reduced; also recorded: decreased the steady-state level of CRY1
- tolerability (C57BL/6J mice; single doses of 5 and 50 mg/kg): well-tolerated
- toxic effect in pharmacological studies with mice (C57BL/6J mice; summary statement): no toxic effect
